# Measured values reported in patent US20260285850A1, “SUBSTITUTED OXAZOLIDINONES AND IMIDAZOLINONES AS HERBICIDES” (FMC CORPORATION, priority 2023, published 2026).
# Key:
# Format in all cases: in vivo
# [1] = tested on: barnyardgrass (Echinochloa crusgalli); assay: Test B flooded paddy test, visual plant response rating 0-100; conditions: 250 g ai/ha, Flood, applied to paddy water, evaluated after 13 days
# Protocol: (§1) Plant species in the flooded paddy test selected from barnyardgrass (Echinochloa crusgalli), ducksalad (Heteranthera limosa), rice (Oryza sativa), and sedge, umbrella (small-flower umbrella sedge, Cyperus difformis) were grown to the 2-leaf stage for testing. At time of treatment, test pots were flooded to 3 cm above the soil surface, treated by application of test compounds directly to the paddy water, and then maintained at that water depth for the duration of the test. Treated plants and controls were maintained in a greenhouse for 13 days, after which time all species were compared to controls and visually evaluated. […] A dash (-) response means no test result.
# [2] = tested on: sedge, umbrella (small-flower umbrella sedge, Cyperus difformis); assay: as above; conditions: 250 g ai/ha, Flood, applied to paddy water, evaluated after 13 days
# Protocol: as §1
# [3] = tested on: rice (Oryza sativa); assay: as above; conditions: 250 g ai/ha, Flood, applied to paddy water, evaluated after 13 days
# Protocol: as §1
# [4] = tested on: ducksalad (Heteranthera limosa); assay: as above; conditions: 250 g ai/ha, Flood, applied to paddy water, evaluated after 13 days
# Protocol: as §1
# [5] = tested on: ragweed (common ragweed, Ambrosia artemisiifolia); assay: Test A postemergence application, visual injury rating 0-100; conditions: 10 days
# From the text: (§2) Seeds of plant species selected from barnyardgrass (Echinochloa crus-galli), blackgrass (Alopecurus myosuroides), corn (Zea mays), foxtail, giant (giant foxtail, Setaria faberi), green foxtail (Setaria viridis), goosegrass (Eleusine indica), kochia (Bassia scoparia), oat, wild (wild oat, Avena fatua), palmer (palmer amaranth, palmer pigweed, Amaranthus palmeri), ragweed (common ragweed, Ambrosia artemisiifolia), ryegrass, Italian (italian ryegrass, Lolium multiflorum), soybean (Glycine max) and wheat (Triticum aestivum) were planted into a blend of loam soil and sand and treated preemergence with a directed soil spray using test chemicals formulated in a non-phytotoxic solvent mixture which included a surfactant.
# (§3) At the same time, plants selected from these crops and weed species and also galium (catchweed bedstraw, Galium aparine) and horseweed (Erigeron canadensis) were planted in pots containing the same blend of loam soil and sand and treated with postemergence applications of test chemicals formulated in the same manner. Plants ranged in height from 2 to 10 cm and were in the one- to two-leaf stage for the postemergence treatment. Treated plants and untreated controls were maintained in a greenhouse for 10 days, after which time all treated plants were compared to untreated controls and visually evaluated for injury. Plant response ratings, summarized in Table A, are based on a 0 to 100 scale where 0 is no effect and 100 is complete control. A dash (-) response means no test result.
# [6] = tested on: oat, wild (wild oat, Avena fatua); assay: as above; conditions: 10 days
# From the text: as §2, §3
# [7] = tested on: ryegrass, Italian (italian ryegrass, Lolium multiflorum); assay: as above; conditions: 10 days
# From the text: as §2, §3
# [8] = tested on: barnyardgrass (Echinochloa crus-galli); assay: as above; conditions: 10 days
# From the text: as §2, §3
# [9] = tested on: kochia (Bassia scoparia); assay: as above; conditions: 10 days
# From the text: as §2, §3
# [10] = tested on: wheat (Triticum aestivum); assay: as above; conditions: 10 days
# From the text: as §2, §3
# [11] = tested on: palmer (palmer amaranth, palmer pigweed, Amaranthus palmeri); assay: as above; conditions: 10 days
# From the text: as §2, §3
# [12] = tested on: corn (Zea mays); assay: as above; conditions: 10 days
# From the text: as §2, §3
# [13] = tested on: soybean (Glycine max); assay: as above; conditions: 10 days
# From the text: as §2, §3
# [14] = tested on: horseweed (Erigeron canadensis); assay: as above; conditions: 10 days
# From the text: as §2, §3
# [15] = tested on: green foxtail (Setaria viridis); assay: as above; conditions: 10 days
# From the text: as §2, §3
# [16] = tested on: blackgrass (Alopecurus myosuroides); assay: as above; conditions: 10 days
# From the text: as §2, §3
# [17] = tested on: ragweed (common ragweed, Ambrosia artemisiifolia); assay: Test A preemergence soil spray, visual injury rating 0-100; conditions: 10 days, 0 = no effect, 100 = complete control
# From the text: as §2, §3
# [18] = tested on: oat, wild (wild oat, Avena fatua); assay: as above; conditions: 10 days, 0 = no effect, 100 = complete control
# From the text: as §2, §3
# [19] = tested on: ryegrass, Italian (italian ryegrass, Lolium multiflorum); assay: as above; conditions: 10 days, 0 = no effect, 100 = complete control
# From the text: as §2, §3
# [20] = tested on: barnyardgrass (Echinochloa crus-galli); assay: as above; conditions: 10 days, 0 = no effect, 100 = complete control
# From the text: as §2, §3
# [21] = tested on: kochia (Bassia scoparia); assay: as above; conditions: 10 days, 0 = no effect, 100 = complete control
# From the text: as §2, §3
# [22] = tested on: wheat (Triticum aestivum); assay: as above; conditions: 10 days, 0 = no effect, 100 = complete control
# From the text: as §2, §3
# [23] = tested on: palmer (palmer amaranth, palmer pigweed, Amaranthus palmeri); assay: as above; conditions: 10 days, 0 = no effect, 100 = complete control
# From the text: as §2, §3
# [24] = tested on: corn (Zea mays); assay: as above; conditions: 10 days, 0 = no effect, 100 = complete control
# From the text: as §2, §3
# [25] = tested on: soybean (Glycine max); assay: as above; conditions: 10 days, 0 = no effect, 100 = complete control
# From the text: as §2, §3
# [26] = tested on: green foxtail (Setaria viridis); assay: as above; conditions: 10 days, 0 = no effect, 100 = complete control
# From the text: as §2, §3
# [27] = tested on: blackgrass (Alopecurus myosuroides); assay: as above; conditions: 10 days, 0 = no effect, 100 = complete control
# From the text: as §2, §3
# [28] = 31 g ai/ha, postemergence, 0 = no effect, 100 = complete control
# [29] = Postemergence, 125 g ai/ha, 0 is no effect, 100 is complete control
smiles,measurement,setting,value
CC1(C(=O)NC2CCC(C(=O)O)C2)CN(c2cc(F)cc(F)c2)C(=O)O1 (centres unmarked) [Compound 9],"Plant response rating, Barnyardgrass (0 to 100 scale, 0 is no effect and 100 is complete control)",[1],0
same,"Plant response rating, Sedge, Umbrella (0 to 100 scale, 0 is no effect and 100 is complete control)",[2],0
same,"Plant response rating, Rice (0 to 100 scale, 0 is no effect and 100 is complete control)",[3],0
same,"Plant response rating, Ducksalad (0 to 100 scale, 0 is no effect and 100 is complete control)",[4],0
same,Ragweed plant response rating (0-100),[5]; [28],0
same,Ragweed plant response rating (0 to 100 scale),[5]; [29],0
same,"Oat, Wild plant response rating (0-100)",[6]; [28],90
same,"Oat, Wild plant response rating (0 to 100 scale)",[6]; [29],90
same,"Ryegrass, Italian plant response rating (0-100)",[7]; [28],50
same,"Ryegrass, Italian plant response rating (0 to 100 scale)",[7]; [29],80
same,Barnyardgrass plant response rating (0-100),[8]; [28],70
same,Barnyardgrass plant response rating (0 to 100 scale),[8]; [29],100
same,Kochia plant response rating (0-100),[9]; [28],50
same,Kochia plant response rating (0 to 100 scale),[9]; [29],80
same,Wheat plant response rating (0-100),[10]; [28],90
same,Wheat plant response rating (0 to 100 scale),[10]; [29],90
same,"Amaranth, Palmer plant response rating (0-100)",[11]; [28],10
same,"Amaranth, Palmer / Pigweed, Palmer plant response rating (0 to 100 scale)",[11]; [29],90
same,Corn plant response rating (0-100),[12]; [28],20
same,Corn plant response rating (0 to 100 scale),[12]; [29],100
same,Soybean plant response rating (0-100),[13]; [28],60
same,Soybean plant response rating (0 to 100 scale),[13]; [29],70
same,Horseweed plant response rating (0-100),[14]; [28],0
same,Horseweed plant response rating (0 to 100 scale),[14]; [29],10
same,"Foxtail, Green plant response rating (0-100)",[15]; [28],30
same,"Foxtail, Green plant response rating (0 to 100 scale)",[15]; [29],90
same,Blackgrass plant response rating (0-100),[16]; [28],60
same,Blackgrass plant response rating (0 to 100 scale),[16]; [29],70
same,Ragweed plant response rating (0-100),[17]; 31 g ai/ha,0
same,Ragweed plant response rating (0 to 100 scale),[17]; 125 g ai/ha,0
same,"Oat, Wild plant response rating (0-100)",[18]; 31 g ai/ha,0
same,"Oat, Wild plant response rating (0 to 100 scale)",[18]; 125 g ai/ha,90
same,"Ryegrass, Italian plant response rating (0-100)",[19]; 31 g ai/ha,0
same,"Ryegrass, Italian plant response rating (0 to 100 scale)",[19]; 125 g ai/ha,90
same,Barnyardgrass plant response rating (0-100),[20]; 31 g ai/ha,0
same,Barnyardgrass plant response rating (0 to 100 scale),[20]; 125 g ai/ha,50
same,Kochia plant response rating (0-100),[21]; 31 g ai/ha,0
same,Kochia plant response rating (0 to 100 scale),[21]; 125 g ai/ha,30
same,Wheat plant response rating (0-100),[22]; 31 g ai/ha,80
same,Wheat plant response rating (0 to 100 scale),[22]; 125 g ai/ha,90
same,"Amaranth, Palmer plant response rating (0-100)",[23]; 31 g ai/ha,0
same,"Amaranth, Palmer plant response rating (0 to 100 scale)",[23]; 125 g ai/ha,10
same,Corn plant response rating (0-100),[24]; 31 g ai/ha,10
same,Corn plant response rating (0 to 100 scale),[24]; 125 g ai/ha,80
same,Soybean plant response rating (0-100),[25]; 31 g ai/ha,0
same,Soybean plant response rating (0 to 100 scale),[25]; 125 g ai/ha,80
same,"Foxtail, Green plant response rating (0-100)",[26]; 31 g ai/ha,0
same,"Foxtail, Green plant response rating (0 to 100 scale)",[26]; 125 g ai/ha,90
same,Blackgrass plant response rating (0-100),[27]; 31 g ai/ha,0
same,Blackgrass plant response rating (0 to 100 scale),[27]; 125 g ai/ha,80
